Measurements from patent publication US20260167629A1, “NOVEL INDAZOLE DERIVATIVE OR PHARMACEUTICALLY ACCEPTABLE SALT THEREOF, AND USE THEREOF” (KOREA UNIVERSITY RESEARCH AND BUSINESS FOUNDATION, priority 2022, published 2026).

What was measured:
Assay type in all cases: cell-based
[1] = test system: Hsp90 clients in JIMT-1 cell line; assay: Western blotting of Hsp90 clients, JIMT-1; settings: JIMT-1, 10 μM, 72 hours
Experimental: (§1) To perform western blotting, BT-474 and JIMT-1 cell lines were treated with control (DMSO), compound 18c, and compound 11k at concentrations of 10 μM each for 72 hours, and then lysed in lysis buffer (30 mM NaCl, 0.5% Triton X-100, 50 mM Tris-HCl; pH 7.4) containing phosphatase and protease inhibitors. The proteins present in the supernatant were harvested. The protein concentration was measured using a Bradford protein assay kit, and 30 μg of protein was taken equally from each experimental group. These proteins were electrophoresed on SDS-Polyacrylamide gels (8-15%), and electrically transferred to a nitrocellulose membrane. The membrane was reacted with primary antibodies [pro PARP (1:1000), cleaved PARP (1:2000), cleaved caspase-3 (1:1000), cleaved caspase-7 (1:1000), β-actin (1:5000)] diluted in 5% bovine serum albumin (BSA) at 4° C. for 24 hours, followed by a secondary antibody, horseradish peroxidase (HRP)-conjugated rabbit IgG (1:3000) for 2 hours at room temperature. The signal intensity of the above proteins was checked by color development using an Enhanced Chemiluminescence Kit and x-ray film.
(§2) Western blotting was used to investigate whether Hsp90 inhibitors, compound 18c (formula 1-16) and compound 11k (formula 1-7), could downregulate the expression and activity (phosphorylation) of HER2 and HER3, which are representative clients of Hsp90, in BT474 and JIMT-1 cell lines. The expression of Akt, MEK, ERK, Bcl-2, Cyclin D1, and Survivin, which are key factors for cell survival as Hsp90 clients, was also investigated. The western blotting was performed by the method that was used in Experimental Example 2.3.
(§3) The BT474 and JIMT-1 cell lines were treated with compound 18c and compound 11k at a concentration of 10 μM for 72 hours.

[2] = test system: JIMT-1 breast cancer cell line; assay: Flow cytometry DNA content (PI), cell cycle arrest and cell death, JIMT-1; settings: JIMT-1, 5 and 10 μM, 72 hours, flow cytometer
Experimental: (§4) The degree of cancer cell death by the indazole derivative of the present disclosure was measured by analyzing DNA content using a flow cytometer. Cells were treated with compound 18c (formula 1-16) and compound 11k (formula 1-7) at concentrations of 0 (DMSO), 5, and 10 μM for 72 hours, and then the cells were harvested. Thereafter, the cells were fixed with 95% ethanol containing 0.5% Tween-20 for 24 hours, and stained with propidium iodide (PI, 50 μg/mL) and RNase (50 μg/mL) for 30 minutes. Afterwards, the degree of cancer cell death was analyzed using a flow cytometer.
(§5) In general, the cell cycle is divided into G1 (cell growth phase)—S(cell replication phase)—G2/M (cell division phase) according to the content of intracellular DNA. […] The results of this cell death within the cell cycle are manifested by the Sub-G1 region, and the percentage of Sub-G1 induced by the indazole derivative of the present disclosure is shown numerically in FIGS. 5B and 6B.

[3] = test system: JIMT-1 cell line; assay: MTS cell viability assay in JIMT-1 cell line; settings: Homo sapiens, JIMT-1, 72 hours
Experimental: The control group was treated with DMSO as an untreated group (0 μM) of the indazole derivative of the present disclosure.
(§6) Specifically, cells were attached to 96 well plates for 24 hours, and then treated with the indazole derivatives for 72 hours. Thereafter, the cells were chromogenized with MTS for 4 hours, and the absorbance was measured at 490 nm using a Spectramax Plus384 microplate analyzer.
(§7) HER2 positive breast cancer (HER2+BC) cell lines, BT474 (cell seeding numbers: 2.4 (BT474)×10^4 cells/wells (confluency≥50%)) sensitive to trastuzumab and JIMT-1 (cell seeding numbers: 1.0 (JIMT-1)×10^4 cells/wells (confluency>30%)) resistant to trastuzumab were used in the experiment.
(§8) In this case, the cell lines were treated with the benzopyran derivative at a concentration of 10 μM for 72 hours and the cell lines were treated with the indazole derivative at a concentration of 10 μM for 72 hours, and then the cell viability was measured.

[4] = test system: cleaved caspase-3, cleaved caspase-7, PARP in JIMT-1 cell line; assay: Western blotting of apoptosis-related proteins, JIMT-1; settings: JIMT-1, 10 μM, 72 hours; for amounts of cleaved caspase-3 and cleaved caspase-7: compared to the control group
Experimental: (§9) To investigate the mechanism of cell death by compound 18c (formula 1-16) and compound 11k (formula 1-7), the activation of apoptosis-related factor caspase family members was determined through western blotting.
as §1

[5] = test system: BT474 breast cancer cell line; assay: Flow cytometry DNA content (PI), cell cycle arrest and cell death, BT474; settings: BT474, 5 and 10 μM, 72 hours, flow cytometer
Experimental: as §4, §5

[6] = test system: Hsp90 clients in BT474 cell line; assay: Western blotting of Hsp90 clients, BT474; settings: BT474, 10 μM, 72 hours
Experimental: as §1, §2, §3

[7] = test system: cleaved caspase-3, cleaved caspase-7, PARP in BT474 cell line; assay: Western blotting of apoptosis-related proteins, BT474; settings: BT474, 10 μM, 72 hours; for amounts of cleaved caspase-3 and cleaved caspase-7: compared to the control group
Experimental: as §9, §1

[8] = test system: BT474 cell line; assay: MTS cell viability assay in BT474 cell line; settings: Homo sapiens, BT-474, BT474, 72 hours
Experimental: as §6, §7, §8

IC50 [8]	Structure (SMILES)	expression of HER2 and HER3 [1]	expression of activated forms phospho-HER2 and phospho-HER3 [1]	expression of cell proliferation factors Akt, MEK, ERK, Bcl-2, Cyclin D1, and Survivin [1]	G2/M phase of the cell cycle [2]	cell death (Sub-G1 population) [2]	IC50 [3]	cleaved-PARP (89 kDa) [4]	amounts of cleaved caspase-3 and cleaved caspase-7 [4]	G2/M phase of the cell cycle [5]	cell death (Sub-G1 population) [5]	expression of HER2 and HER3 [6]	expression of activated forms phospho-HER2 and phospho-HER3 [6]	expression of cell proliferation factors Akt, MEK, ERK, Bcl-2, Cyclin D1, and Survivin [6]	cleaved-PARP (89 kDa) [7]	amounts of cleaved caspase-3 and cleaved caspase-7 [7]
8.48 µM	COc1c(C(=O)Nc2ccc3c(C)nn(CCC4CCN(C)CC4)c3c2)ccc2c1C=CC(C)(C)O2 [compound 11k, 5-Methoxy-2,2-dimethyl-N-(3-methyl-1-(2-(1-methylpiperidin-4-yl)ethyl)-1H-indazol-6-yl)-2H-chromene-6-carboxamide]	decreased	significantly reduced	inhibited the expression	arrested the G2/M phase	significantly induced cell death	4.06 µM	increase	significantly increased	arrested the G2/M phase	significantly induced cell death	decreased	significantly reduced	inhibited the expression	increase	significantly increased
4.98 µM	COCCn1nc(NC(=O)c2ccc3c(c2OC)C=CC(C)(C)O3)c2ccccc21 [compound 18c, 5-Methoxy-N-(1-(2-methoxyethyl)-1H-indazol-3-yl)-2,2-dimethyl-2H-chromene-6-carboxamide]	decreased	significantly reduced	inhibited the expression	arrested the G2/M phase	significantly induced cell death	4.6 µM	increase	significantly increased	arrested the G2/M phase	significantly induced cell death	decreased	significantly reduced	inhibited the expression	increase	significantly increased
